Results from patent publication US7514469B2, “Formulation of a mixture of Free-B-ring flavonoids and flavans as a therapeutic agent” (Unigen Pharmaceuticals, Inc., priority 2002, dated 2009).
pIC50: −log10 of the molar value. Where two headings read alike, the source gives them in different places.

How the values were obtained:
[1] = system: colorectal cancer; settings: in vivo; cited from earlier work
[2] = molecular target: T1, Ovine COX-1 (Ovis aries, UniProt P05979); test: COX-1 peroxidase activity IC50 assay with TMPD (Example 6); type: biochemical
T1 sequence (P05979 25-600): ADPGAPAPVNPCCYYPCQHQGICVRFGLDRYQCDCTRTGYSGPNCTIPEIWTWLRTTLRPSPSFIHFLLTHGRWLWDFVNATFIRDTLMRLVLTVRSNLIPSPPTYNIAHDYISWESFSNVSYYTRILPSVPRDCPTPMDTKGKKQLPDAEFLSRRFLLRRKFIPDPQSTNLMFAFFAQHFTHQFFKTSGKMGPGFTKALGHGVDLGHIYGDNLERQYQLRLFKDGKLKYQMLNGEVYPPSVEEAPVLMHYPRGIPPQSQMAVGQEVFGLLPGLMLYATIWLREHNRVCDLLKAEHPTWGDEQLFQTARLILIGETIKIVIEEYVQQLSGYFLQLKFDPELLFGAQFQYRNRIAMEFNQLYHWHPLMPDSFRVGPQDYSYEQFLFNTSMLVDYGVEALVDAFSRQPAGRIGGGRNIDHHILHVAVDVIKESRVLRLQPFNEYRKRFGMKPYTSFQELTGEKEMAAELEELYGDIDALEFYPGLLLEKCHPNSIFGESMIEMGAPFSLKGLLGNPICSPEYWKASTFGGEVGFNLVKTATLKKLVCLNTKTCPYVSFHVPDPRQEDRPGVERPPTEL
Method: (§1) A cleavable, peroxide chromophore was included in the assay to visualize the peroxidase activity of each enzyme in the presence of arachidonic acid as a cofactor. Typically, the assays were performed in a 96-well format. Each inhibitor, taken from a 10 mg/mL stock in 100% DMSO, was tested in triplicate at room temperature using the following range of concentrations: 0, 0.1, 1, 5, 10, 20, 50, 100, and 500 μg/mL. […] The components were mixed for 10 seconds on a rotating platform, after which 20 μL of 2 mM N,N,N′N′-Tetramethyl-p-phenylenediamine dihydrochloride (TMPD) and 20 μL of 1.1 mM AA was added to initiate the reaction. The plate was shaken for 10 seconds and then incubated for 5 minutes before reading the absorbance at 570 nm. The inhibitor concentration vs. percentage inhibition was plotted and the IC50 determined by taking the half-maximal point along the isotherm and intersecting the concentration on the x-axis. The IC50 was then normalized to the number of enzyme units in the assay.

[3] = molecular target: T2, recombinant ovine COX-2 (Ovis aries, UniProt P79208); test: COX-2 peroxidase activity IC50 assay with TMPD (Example 6); type: biochemical
T2 construct: purchased Cayman
T2 sequence (P79208 17-603): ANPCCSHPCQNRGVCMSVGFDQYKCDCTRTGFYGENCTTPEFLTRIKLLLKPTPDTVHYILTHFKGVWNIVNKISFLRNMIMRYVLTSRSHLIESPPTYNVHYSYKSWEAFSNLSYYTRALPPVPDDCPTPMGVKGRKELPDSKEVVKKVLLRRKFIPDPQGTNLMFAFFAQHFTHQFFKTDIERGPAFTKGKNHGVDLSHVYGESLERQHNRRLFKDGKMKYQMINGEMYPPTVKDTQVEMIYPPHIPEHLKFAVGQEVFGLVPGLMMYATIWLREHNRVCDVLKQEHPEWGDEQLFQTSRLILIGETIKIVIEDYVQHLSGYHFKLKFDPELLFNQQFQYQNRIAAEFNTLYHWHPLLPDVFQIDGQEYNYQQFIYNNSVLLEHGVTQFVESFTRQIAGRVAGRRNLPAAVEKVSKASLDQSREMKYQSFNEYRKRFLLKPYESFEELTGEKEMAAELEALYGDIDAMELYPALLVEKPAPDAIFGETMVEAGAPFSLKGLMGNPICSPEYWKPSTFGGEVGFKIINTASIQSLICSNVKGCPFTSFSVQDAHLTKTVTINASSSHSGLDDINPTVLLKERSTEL
Method: as §1

[4] = system: subjects with rheumatoid arthritis or osteoarthritis of the knee and/or hip; test: Clinical study, WOMAC Osteo-Arthritis Index; type: in vivo, human; settings: 200 mg/day; vs baseline; completers only
Source text: This clinical study was a single-center, randomized, double-blind, placebo-controlled study. Sixty subjects (n=60) with rheumatoid arthritis or osteoarthritis of the knee and/or hip were randomly placed into one of the following four groups:
Subjects were sex-matched and recruited from ages 40 to 75. […] Subjects taking NSAIDs engaged in a two-week washout period before beginning the study. Physical activity was not restricted, nor were the subjects given any advice as to diet. Subjects were free to withdraw from the trial at any time for any reason. The efficacy of the treatments was evaluated at 30, 60 and 90 days of oral administration by physicians, using the Western Ontario and McMaster Universities (WOMAC) Osteo-Arthritis Index (See Lingard et al. (2001) J. Bone & Joint Surg. 83:1856-1864; Soderman and Malchau (2000) Acta Orthop. Scand. 71(1):39-46). This protocol was reviewed and approved by an IRB board from University of Montreal.
The WOMAC was administered to subjects preferably in the doctor's office. They were asked to read and respond to a questionnaire on their own or via proxy in the waiting room of the doctor's office or were interviewed by project personnel over the telephone and the data were transcribed in the computer database. This offered a stable environment among patients and reduced the possibility of bias due to different home environments among patients. Between groups differences for all measurements were evaluated with One-Way Analysis of Variance and Tukey's Least Significant Difference for multiple comparisons. All questions were assigned a weight from 0 to 4 depending on the severity of pain, stiffness or impaired function. These values were then converted to percentages normalized to 100 and reported as WOMAC scores. Higher values are indicative of greater impairment. […] The lower the score, the less pain and stiffness and better function a patient has.

[5] = Clinical study, weight and BMI; type: in vivo, human; settings: 200 mg/day
Method: Additional measurements taken during the clinical trial were height and weight. All subjects in all groups (see Example 20) were measured for height and weight at 30 and 90 days of treatment. The subjects were given no recommendations on diet or exercise in order not to bias the results toward reduction of BMI and weight loss. Table 14 illustrates the changes in weight and BMI that occurred after treatment for 30 and 90 days.

[6] = molecular target: T1, Ovine COX-1; test: COX-1 peroxidase assay (Example 2 method); type: biochemical; settings: read-out: Inhibition of COX-1
Source text: Peroxidase Assay. The assay to detect inhibitors of COX-2 was modified for a high throughput platform (Raz). […] Luminescence was then read using a Wallac Victor 2 plate reader.
Comparison of the relative inhibition of the COX-1 and COX-2 isoforms requires the generation of IC50 values for each of these enzymes. […] Examination of the HTP fractions and purified compounds from these fractions is necessary to determine the true specificity of inhibition for these extracts and compounds.

[7] = system: mouse; settings: oral, 100 mg/kg; cited from earlier work
[8] = system: COX-1; settings: cited from earlier work
[9] = molecular target: T2, recombinant ovine COX-2; test: COX-2 peroxidase assay, high throughput (Example 2); type: biochemical; settings: 20 μg/mL
Source text: Peroxidase Assay. The assay to detect inhibitors of COX-2 was modified for a high throughput platform (Raz). […] Luminescence was then read using a Wallac Victor 2 plate reader. […] Data is presented as the percent of peroxidase activity relative to the recombinant ovine COX-2 enzyme and substrate alone.

[10] = system: LTB4 synthesis (5-LO pathway) in HT-29 cells; test: LTB4 ELISA in HT-29 cells; type: cell-based; settings: 3 μg/mL, 48 hrs; Univestin ratio 80:20
Method: A competitive ELISA for LTB4 (LTB4; Neogen, Inc., Cat #4061 10) was used to assess the effect of Univestin™ on newly synthesized levels of LTB4 present in each cell line as a measure of Univestin™'s inhibitory effect on the 5-LO pathway. The assay was performed in duplicate by adding 160,000 to 180,000 cells per well in 6-well plates. […] Each treated cell line was then harvested by centrifugation and disrupted by gentle dounce homogenization lysis in physiological buffers.

[11] = molecular target: potato 5-lipoxygenase; test: Lipoxygenase Inhibitor Screening Assay with potato 5-LO; type: biochemical
Source text: As noted above, one of the most important pathways involved in the inflammatory response is produced by non-heme, iron-containing lipoxygenases (5-LO, 12-LO, and 15-LO), which catalyze the addition of molecular oxygen onto fatty acids such as AA (AA) to produce the hydroperoxides 5-, 12- and 15-HPETE, which are then converted to leukotrienes. There were early indications that the flavan extract from A. catechu may provide some degree of 5-LO inhibition, thereby preventing the formation of 5-HPETE. […] The 15-LO from soybeans normally used in the kit was replaced with potato 5-LO, after a buffer change from phosphate to a tris-based buffer using microfiltration was performed. This assay detects the formation of hydroperoxides through an oxygen sensing chromagen.

CC(=O)Oc1ccccc1C(=O)O [Aspirin]
Reduction of colorectal cancer mortality [1]: 50% | Reduction of incidence of colorectal cancer [1]: 40-50%

Oc1cc(O)c2c(c1)O[C@H](c1ccc(O)c(O)c1)[C@H](O)C2 [epicatechin]
pIC50 [2]: 4.62 | pIC50 [3]: 4.16

Cc1ccc(-c2cc(C(F)(F)F)nn2-c2ccc(S(N)(=O)=O)cc2)cc1 [Celecoxib]
Mean absolute change in WOMAC score Function-30 days [4]: −0.37 | Mean absolute change in WOMAC score Function-60 days [4]: −6.97 | Mean absolute change in WOMAC score Function-90 days [4]: −2.78 | Mean absolute change in WOMAC score Pain-30 days [4]: −4.23 | Mean absolute change in WOMAC score Pain-60 days [4]: −22.31 | Mean absolute change in WOMAC score Pain-90 days [4]: −16.67 | Mean absolute change in WOMAC score Stiffness-30 days [4]: −8.65 | Mean absolute change in WOMAC score Stiffness-60 days [4]: −9.62 | Mean absolute change in WOMAC score Stiffness-90 days [4]: −13.54 | Change in mean BMI, 30 days [5]: −.68 kg/m^2 | Change in mean BMI, 90 days [5]: −1.07 kg/m^2 | Change in mean weight, 30 days [5]: -2.00 kg | Change in mean weight, 90 days [5]: -3.17 kg

O=c1cc(-c2ccccc2)oc2cc(O)c(O)c(O)c12 [baicalein]
inhibition at 20 µg/mL ([6]; 20 μg/mL): 107%

Oc1ccc([C@H]2Oc3cc(O)cc(O)c3C[C@H]2O)cc1 [Epiafzelechin]
Anti-inflammatory activity, carrageenin-induced mouse paw edema [7]: demonstrated anti-inflammatory activity | pIC50 ([8]; isolated from Celastrus orbiculatus): 4.82

COc1cc2oc(-c3ccccc3)cc(=O)c2c(O)c1O [5,6-Dihydroxy-7-methoxyflavone]
inhibition at 20 µg/mL ([6]; 20 μg/mL): 75% | inhibition at 20 µg/mL [9]: 59%

COc1c(O)cc(O)c2c(=O)cc(-c3ccccc3)oc12 [Wogonin]
inhibition at 20 µg/mL [6]: 16%

Oc1cc(O)c2c(c1)O[C@H](c1ccc(O)c(O)c1)[C@@H](O)C2 [(+)-Catechin]
pIC50 ([8]; isolated from natural source): 4.10

CC(C)Cc1ccc(C(C)C(=O)O)cc1 (centres unmarked) [Ibuprofen]
Reduction of newly synthesized LTB4 [10]: 20%

O=C(O)[C@H]1O[C@@H](Oc2cc3oc(-c4ccccc4)cc(=O)c3c(O)c2O)[C@H](O)[C@@H](O)[C@@H]1O [baicalin]
inhibition at 20 µg/mL ([6]; 20 μg/mL): 95% | inhibition at 20 µg/mL [9]: 97%

Oc1cc(O)c2c(c1)OC(c1ccc(O)c(O)c1)C(O)C2 (centres unmarked) [catechin]
IC50 for COX-1 ([2]; normalized to enzyme units): 0.11 μg/mL/unit of enzyme | IC50 for 5-LO [11]: 1.38 μg/mL/unit of enzyme | IC50 for COX-2 ([3]; normalized to enzyme units): 0.42 μg/mL/unit

O=c1cc(-c2ccccc2)oc2c(O)c(O)ccc12 [7,8-Dihydroxyflavone]
inhibition at 20 µg/mL ([6]; 20 μg/mL): 74% | inhibition at 20 µg/mL [9]: 63%
